Reference: paper PMC11481279 (Europace, 2024)

Target: SARS-CoV-2 ORF 3a protein (Severe acute respiratory syndrome coronavirus 2, UniProt P0DTC3)
Assay: cell-based
Details: read-out: % inhibition at 100 μM

Compound | inhibition at 100 µM
CCCCc1oc2ccc(NS(C)(=O)=O)cc2c1C(=O)c1ccc(OCCCN(CCCC)CCCC)cc1 [Dronedarone] | 45.4 ± 4.7%
CCCCCCCN(CC)CCCC(O)c1ccc(NS(C)(=O)=O)cc1 (stereo not shown) [Ibutilide] | 36.4 ± 6.6%
CN(CCOc1ccc(NS(C)(=O)=O)cc1)CCc1ccc(NS(C)(=O)=O)cc1 [Dofetilide] | 65.1 ± 6.7%
CC(C)NC[C@@H](O)c1ccc(NS(C)(=O)=O)cc1 [D-Sotalol] | 20.6 ± 4.5%
